Experimental data: ChEMBL document CHEMBL1122359, “Improved delivery through biological membranes. 13. Brain-specific delivery of dopamine with a dihydropyridine in equilibrium with pyridinium salt type redox delivery system” (1983)

Columns and labels:
Format in all cases: functional
Rattus norvegicus [1] = assay: In vitro Weight change in anterior pituitary after the administration of the compound
Rattus norvegicus [2] = organism: Rattus norvegicus; assay: In vitro Inhibitory activity against prolactin release in anterior pituitary from adult female rats(Charles Rivers Labs) at a concentration of 2*10e-8M
Rattus norvegicus [3] = organism: Rattus norvegicus; assay: Percent decrease in serum prolactin concentration in male rats
Rattus norvegicus [4] = organism: Rattus norvegicus; assay: In vitro Inhibitory activity against prolactin release in anterior pituitary from adult female rats(Charles Rivers Labs), at a concentration of 2*10e-7M

For `C[n+]1cccc(C(=O)NCCc2ccc(O)c(O)c2)c1.[I-]`, the “Weight change of AP-S” value (Rattus norvegicus [1]) was 4.7 mg, the Prolactin release rate (Rattus norvegicus [2]) was 386 ng/mg/h and the Decrease (Rattus norvegicus [3]) was 67%. The Prolactin release rate (Rattus norvegicus [4]) was 277 ng/mg/h.

Molecule `CN1C=CCC(C(=O)NCCc2ccc(OC(=O)C(C)(C)C)c(OC(=O)C(C)(C)C)c2)=C1` has a Decrease (Rattus norvegicus [3]) of 79%.

Molecule `NCCc1ccc(O)c(O)c1` [DOPAMINE] has a Prolactin release rate (Rattus norvegicus [2]) of 355 ng/mg/h.
